Data on 2 compounds can be found in patent publication US6428804B1, “Intra-articular preparation for the treatment of arthropathy” (SSP Co., Ltd., priority 1997, dated 2002).

Data set [1] is described as follows: Pharmacokinetic test of DFNa-containing microcapsules (Test 6). It counts as in vivo. As to conditions: rabbit knee joint, 1 mg in terms of DFNa, solution in physiological saline (FIG. 9). How it is done:
The DFNa-containing microcapsules (average particle size: 67.9 μm) obtained in Example 25 were suspended in the same injection-grade dispersion medium as that employed in Test 1. The resulting suspension was injected in a dose of 10 mg in terms of DFNa into a knee joint of a rabbit, and the amount of DF in the synovium and its peripheral tissue was measured periodically. As a control, a solution of DFNa in a physiological saline was injected in a dose of 1 mg in terms of DFNa, and measurements were conducted.

Data set [2] is described as follows: Pharmacokinetic test of MTX-containing microcapsules (Test 8). The data set is classed as in vivo. As to conditions: rabbit knee joint, 1 mg in terms of MTX (FIG. 11). The procedure:
The MTX-containing microcapsules obtained in Example 26 were suspended in the same injection-grade dispersion medium as that employed in Test 1. The resulting suspension was injected in a dose of 1 mg in terms of MTX into a knee joint of a rabbit, and the amount of MTX in the synovium and its peripheral tissue was measured periodically. As a control, MTX was dissolved in a phosphate buffer of pH 7.5 and the resulting solution was injected in a dose of 1 mg in terms of MTX.

For `O=C(O)Cc1ccccc1Nc1c(Cl)cccc1Cl` [diclofenac sodium], in data set [1], the “amount of DF in the synovium and its peripheral tissue” value is listed as “no existence of DF was observed”.

In the case of `CN(Cc1cnc2nc(N)nc(N)c2n1)c1ccc(C(=O)N[C@@H](CCC(=O)O)C(=O)O)cc1` [solution of MTX in the phosphate buffer, Methotrexate], the “amount of MTX in the synovium and its peripheral tissue” value in data set [2] is “no existence of MTX was observed”.
